Measured values as given in patent EP0275215B1, “Contrast agents for the gastrointestinal tract” (GUERBET S.A., priority 1987, dated 1988).

What was measured:
[1] = Binding of metal complexes to particulate carrier (1H NMR relaxation of supernatant); conditions: to calcium phosphate ortho; 0.4ml 50mM metal complex, pH 7.5, 3 minutes
Method: The solid from 1ml of particulate solution was isolated by centrifugation and the supernatant removed. 0.4ml of a 50mM metal complex solution at pH = 7.5 was added and the solid resuspended. […] After 3 minutes the solid was isolated by centrifugation washed once by resuspension in distilled water (0.4ml) followed by recentrifugation to isolate the products. The initial supernatant was analysed by ¹H NMR relaxation measurements at 200MHz and the amount of metal complex bound to the particulate calculated.

[2] = as above; conditions: to aluminium phosphate; 0.4ml 50mM metal complex, pH 7.5, 3 minutes
Method: (§1) The particulates used were generally used as suspensions in distilled water for these studies (250mg/ml). The solid from 1ml of particulate solution was isolated by centrifugation and the supernatant removed. 0.4ml of a 50mM metal complex solution at pH = 7.5 was added and the solid resuspended. […] After 3 minutes the solid was isolated by centrifugation washed once by resuspension in distilled water (0.4ml) followed by recentrifugation to isolate the products. The initial supernatant was analysed by ¹H NMR relaxation measurements at 200MHz and the amount of metal complex bound to the particulate calculated.

[3] = as above; conditions: to silica; 0.4ml 50mM metal complex, pH 7.5, 3 minutes
Method: (§2) The particulates used were generally used as suspensions in distilled water for these studies (250mg/ml). The solid from 1ml of particulate solution was isolated by centrifugation and the supernatant removed. 0.4ml of a 50mM metal complex solution at pH = 7.5 was added and the solid resuspended. […] After 3 minutes the solid was isolated by centrifugation washed once by resuspension in distilled water (0.4ml) followed by recentrifugation to isolate the products. The initial supernatant was analysed by ¹H NMR relaxation measurements at 200MHz and the amount of metal complex bound to the particulate calculated. The particulates were resuspended at 10 mg/ml and the T1 and T2 relaxation times measured at 10MHz and 37°C.

[4] = as above; conditions: to calcium phosphate neutral; 0.4ml 50mM metal complex, pH 7.5, 3 minutes
Method: as §1

[5] = as above; conditions: to calcium phosphate basic; 0.4ml 50mM metal complex, pH 7.5, 3 minutes
Method: as §1

[6] = as above; conditions: to aluminium hydroxide; 0.4ml 50mM metal complex, pH 7.5, 3 minutes
Method: as §1

[7] = as above; conditions: to sodium phosphate glass; 0.4ml 50mM metal complex, pH 7.5, 3 minutes
Method: as §2

[8] = as above; conditions: to magnesium trisilicate; 0.4ml 50mM metal complex, pH 7.5, 3 minutes
Method: as §2

[9] = as above; conditions: to calcium pyrophosphate; 0.4ml 50mM metal complex, pH 7.5, 3 minutes
Method: as §2

[10] = as above; conditions: to magnesium hydroxide; 0.4ml 50mM metal complex, pH 7.5, 3 minutes
Method: as §2

[11] = as above; conditions: to calcium hydroxide; 0.4ml 50mM metal complex, pH 7.5, 3 minutes
Method: as §1

[12] = Stability of 153Gd labelled adducts in acid solution; type: physicochemical; conditions: 5ml 0.2M HCl, 24hrs, percentage of the original activity
Method: The stability of the adducts in acid solution was assayed using ¹⁵³Gd labelled adducts. The adducts were prepared as in the binding assays described previously. 5ml of 0.2M HCl was then added to the adduct which was resuspended and left for 24hrs. The suspensions were then filtered through a glass sinter and washed with 5ml distilled water. The total filtrate was then placed into an ion chamber and the total activity measured.

[13] = Binding of 153Gd labelled gadolinium complexes, radioactive assay; conditions: total activity of the filtrate as percentage of the original; 12.5mM Gd, 25mM phosphonate where present
Method: The binding of gadolinium complexes was also assayed using ¹⁵³Gd labelled solutions. The particulates were used as suspensions (250mg/ml) and isolated by centrifugation. 0.4ml of a radioactively labelled gadolinium complex was then added and the solid resuspended. After three minutes the solid was filtered through a glass sinter and washed with water (≃10ml). The total activity of the filtrate was measured and expressed as a percentage of the original. The gadolinium concentration of the complex in this assay was 12.5mM and the concentration of phosphonate (where present) was 25mM. A further assay involved the addition of 25mM, and 37.5mM Gd with concomitant increase in the phosphonate concentration.

Row | Molecule | % Bound [1] | % Bound [2] | % Bound [3] | % Bound [4] | % Bound [5] | % Bound [6] | % Bound [7] | % Bound [8] | % Bound [9] | % Bound [10] | % Bound [11] | PERCENTAGE ACTIVITY IN SUPERNATANT ([12]; adduct with Ca₂P₂O₇) | PERCENTAGE ACTIVITY IN SUPERNATANT ([12]; adduct with Ca₃(PO₄)₂) | BINDING TO CaPO₄ - RADIOACTIVE ASSAY [13] | BINDING TO CaPYROPHOSPHATE - RADIOACTIVE ASSAY [13]
1 | ferric citrate | 82% | 18% | 16% | 68% | 80% | 80% | 26% | 50% | 28% | 89% | 74% | – | – | – | –
2 | [Cl][Fe]([Cl])[Cl] [FeCl₃] | – | 78% | 46% | 92% | 96% | 89% | 41% | 93% | 50% | 96% | 98% | – | – | – | –
3 | [Cl][Gd]([Cl])[Cl] [GdCl₃] | – | – | 66% | 98% | 99% | 98% | 48% | 89% | 68% | 99% | 99% | 0.41% | 0.54% | 2.07% | 0.14%
